Results reported in PubChem BioAssay AID1996.
≈ marks a conversion by molar mass, not a printed value.

Conditions: buffer; pH 7.4; 200.0 µM

Compound | solubility kinetic
CC(C)C(NC(=O)c1ccccc1)C(=O)NCCc1ccccc1 (configuration not stated) | 9.4 µg/mL (≈ 29 µM)
Cc1cccc(C)c1NC(=O)CN1C(=O)C(C)Oc2ccccc21 (configuration not stated) | 11.6 µg/mL (≈ 35.8 µM)
CC(C)(CNC(=O)c1ccccc1F)CNC(=O)c1ccccc1F | 51.6 µg/mL (≈ 149 µM)
CC(O)c1nc2ccccc2n1C(C)c1ccccc1 (configuration not stated) | > 40 µg/mL
CC(C)OP(=O)(c1ccc(N(C)C)cc1)C(O)c1cccnc1 (configuration not stated) | > 50.2 µg/mL
Cc1ccccc1Sc1ccc(N)cn1 | 31.4 µg/mL (≈ 145 µM)
CC1CC(Nc2ccccc2)c2ccccc2N1C(=O)c1ccncc1 (configuration not stated) | 25.9 µg/mL (≈ 75.4 µM)
O=C(N/C(=C/c1cccnc1)C(=O)N1CCOCC1)c1ccccc1F | > 53.3 µg/mL
O=C(CN1C(=O)NC2(CCCCCC2)C1=O)c1ccccc1 | > 45.1 µg/mL
O=C1NC(=Nc2ccccc2)S/C1=C/c1cccnc1 | 1.2 µg/mL (≈ 4.27 µM)
COCC(=O)N(Cc1cc2cc(C)ccc2[nH]c1=O)c1cccc(C)c1C | 12.3 µg/mL (≈ 33.7 µM)
COc1cc(SC)ccc1C(=O)NC1CCCc2ccccc21 (configuration not stated) | < 0.7 µg/mL
COc1ccc(SCCC(=O)NCc2ccncc2)cc1 | > 45.4 µg/mL
COCCNC(=O)/C(C#N)=C/c1cccc(OCc2ccccc2)c1 | 21.2 µg/mL (≈ 63 µM)
O=C(CCCCN1CCCCC1)c1ccccc1 | 31.8 µg/mL (≈ 130 µM)
Cc1ccc(CNC(=O)c2cc(=O)c3cc(C)ccc3o2)cc1 | < 0.7 µg/mL
COc1ccccc1CNC(=O)c1nccnc1CO | > 41 µg/mL
CC(=O)Nc1ccc(N/C=C2/CCCC2=O)cc1 | > 36.6 µg/mL
COc1ccc(C(=O)Nn2c(C)nc3ccccc3c2=O)cc1 | > 46.4 µg/mL
COc1cc(NC(=O)C2C3CCC(O3)C2C(=O)O)cc(OC)c1 (configuration not stated) | > 48.2 µg/mL
COc1ccc(Br)cc1/C=C(\C(=O)O)c1ccc(S(=O)(=O)N2CCCC2)s1 | > 70.9 µg/mL
CC(NC(=O)COc1ccccc1)C(c1cccs1)N1CCCC1 (configuration not stated) | > 51.7 µg/mL
CCc1ccc2nc(NC(=O)CN3C(=O)NC4(CCCC4)C3=O)sc2c1 | 2.6 µg/mL (≈ 6.98 µM)
CCC(NC(=O)Cc1cccs1)c1ccccc1 (configuration not stated) | > 38.9 µg/mL
C=CCn1c(=S)[nH]c2sc3c(c2c1=O)CCCC3 | 14.7 µg/mL (≈ 52.8 µM)

Compound | solubility kinetic
Cc1ccc(-c2nc(Nc3ccc(O)cc3)c3ccccc3n2)cc1 | 0.9 µg/mL (≈ 2.75 µM)
COc1ccccc1CNc1ccc(Br)cn1 | 11.6 µg/mL (≈ 39.6 µM)
O=C(NCCCc1nc2ccccc2[nH]1)c1ccc(F)cc1 | > 44.6 µg/mL
O=c1cc(CO)[nH]cc1OCc1ccccc1 | 34.4 µg/mL (≈ 149 µM)
CC1(C)CC(=O)N(c2cc(Cl)ccc2Cl)C(=O)C1 | 14.7 µg/mL (≈ 51.4 µM)
CC(C)NC(=O)CCCn1cc([N+](=O)[O-])cn1 | > 36 µg/mL
O=C(OCc1cc(Cl)cc2c1OCOC2)c1cccnc1Cl | 8.5 µg/mL (≈ 25 µM)
O=C(CCC(=O)NC1CCCCC1)Nc1cccnc1 | > 41.3 µg/mL
O=C(NC1CCCCCCC1)c1ccc(Br)o1 | 37.2 µg/mL (≈ 124 µM)
COC(=O)Cc1c(O)ccn(C2CC2)c1=O | > 33.5 µg/mL
CCOc1ccc(N=C2SCC(=O)N2CC)cc1 | 33.6 µg/mL (≈ 127 µM)
CCOC(=O)c1c(C)nsc1NC(=O)c1ccco1 | 1.6 µg/mL (≈ 5.71 µM)
CC(c1ccccc1)C1CC(=O)N(c2cc(Cl)ccn2)C1=O (configuration not stated) | > 47.2 µg/mL
Cc1nn2c(nc1=O)NNC2(C)C(C)(C)C (configuration not stated) | > 33.5 µg/mL
CC(C(=O)OCC(=O)c1ccccc1)N1C(=O)c2ccccc2C1=O (configuration not stated) | 40.4 µg/mL (≈ 120 µM)
O=C(Nc1ccc2ccccc2n1)Nc1ccccc1F | < 0.2 µg/mL
COCCNCC(=O)N1CCCCCC1.O=C(O)C(=O)O | > 45.7 µg/mL
COC(=O)CN1C(=O)N/C(=C/c2cc3c(cc2OC)OCO3)C1=O | 6.3 µg/mL (≈ 18.8 µM)
Cc1ccc(NC(=O)COc2cccc3c2OC(C)(C)C3)c(O)c1 | 6.8 µg/mL (≈ 20.8 µM)
COc1ccc(-c2csc(NC(=O)c3ccoc3C)n2)cc1 | < 0.3 µg/mL
O=C(Nc1ccc(F)c(Cl)c1)c1ccc2c(c1)OCO2 | < 0.6 µg/mL
Clc1cccc(C2CCN(Cc3nc(CC4CC4)no3)C2)c1 (configuration not stated) | 12.3 µg/mL (≈ 38.7 µM)
Cc1ccc(N2CC(C(=O)NC3CC3)CC2=O)cc1 (configuration not stated) | > 38.7 µg/mL
Cc1onc(-c2c(F)cccc2Cl)c1C(=O)NCc1ccccc1 | 49.7 µg/mL (≈ 144 µM)
Cc1ccc(CNCc2ccco2)cc1.O=C(O)C(=O)O | > 43.7 µg/mL

Compound | solubility kinetic
Cc1noc(C)c1COc1cccc(C(=O)NC(C)(C)C)c1 | > 45.4 µg/mL
Cn1c(CNC(=O)OC(C)(C)C)n[nH]c1=S | > 36.6 µg/mL
COc1cc(CNC(=O)C2CCCC2)cc(OC)c1OC | > 44 µg/mL
O=C(O)CCc1ccc(-c2ccccc2)n1-c1cccc(C(=O)O)c1 | > 50.3 µg/mL
C=CCNC(=O)C1CCN(S(=O)(=O)c2cccs2)CC1 | > 47.2 µg/mL
FC(F)(F)c1cccc(CNC2CCN(Cc3ccccc3)CC2)c1 | 38.6 µg/mL (≈ 111 µM)
CN(C(=O)c1coc(=O)c2ccccc12)c1ccccc1Cl | 44.2 µg/mL (≈ 141 µM)
N#Cc1cccnc1N1CCC(C(N)=O)CC1 | > 34.5 µg/mL
CC(=O)Nc1c(C)nn(-c2ccc([N+](=O)[O-])cc2)c1C | > 41.1 µg/mL
O=C(NC1CC1)c1ccc(NS(=O)(=O)c2ccccc2)cc1 | > 47.5 µg/mL
NS(=O)(=O)c1ccc(NC(=O)COC(=O)C2CC2)cc1 | > 44.7 µg/mL
CC(=O)Nc1cccc(C(=O)OCC(=O)NC(=O)c2ccccc2)c1 | 3.5 µg/mL (≈ 10.3 µM)
CCC(=O)c1ccc(OC(=O)c2cnccn2)cc1 | > 38.4 µg/mL
COC(=O)C(Cc1c[nH]c2ccccc12)NC(=O)C1CC1 (configuration not stated) | > 42.9 µg/mL
CN1CCN(c2nc(Cl)ncc2F)CC1 | > 34.6 µg/mL
COc1ccc(CNc2cc(C)ccn2)c(O)c1 | 29.9 µg/mL (≈ 122 µM)
CCN(C(=O)Cc1c(C(=O)O)n(C)c2ccccc12)c1cccc(C)c1 | > 52.6 µg/mL
Cc1cccc(N2CCN(C(=O)NC3CCCCC3)CC2C)c1 (configuration not stated) | > 47.3 µg/mL
COc1ccc(C=NNC(=O)c2cc(C)oc2C)cc1O | > 43.2 µg/mL
O=C(CCCC(=O)c1ccccc1)Nc1ccc(F)cc1 | 4.9 µg/mL (≈ 17.2 µM)
CCN1C(=O)CSC1=Nc1ccc(OC)cc1 | 33.4 µg/mL (≈ 133 µM)
Cc1nc2sc(C(N)=O)c(N)c2c(C)c1CC(=O)c1ccccc1 | 1.7 µg/mL (≈ 5.01 µM)
Cc1ccc2c(c1)sc(=NC(=O)C1CC1)n2C | 15.5 µg/mL (≈ 62.9 µM)
Cc1nonc1NC(=O)CSc1nnc(N)s1 | > 40.8 µg/mL
Cc1ccc(C(=O)OCC(=O)N2CCCCCC2)cc1S(=O)(=O)N1CCOCC1 | > 63.7 µg/mL

Compound | solubility kinetic
O=C(CC1NCCNC1=O)NC1Cc2ccccc2C1 (configuration not stated) | > 41 µg/mL
O=C1OCCC1Sc1nnc(-c2ccco2)n1-c1ccccc1 (configuration not stated) | > 49.1 µg/mL
COc1ccc(-c2ncnc(C(F)(F)F)c2-c2csc(C)n2)c(O)c1 | 53.1 µg/mL (≈ 145 µM)
Cc1cccc(C(=O)N/C(=C\c2ccc(C)o2)C(=O)O)c1 | > 42.8 µg/mL
Cc1nc(C)c(C)nc1C | < 0.1 µg/mL
C=C(C)c1cccc(C(C)(C)NC(=O)Nc2ccc(OC)nc2)c1 | 14 µg/mL (≈ 43 µM)
COc1ccc2cc(C(=O)N3CCN(c4cccc(C)c4C)CC3)[nH]c2c1 | 1.2 µg/mL (≈ 3.3 µM)
O=C1CCC(=O)N1c1ccc(S(=O)(=O)N2CCCC2)cc1 | 45.4 µg/mL (≈ 147 µM)
COc1ccc(OC)c(C2=NOC(C(=O)Nc3cc(C)on3)C2)c1 (configuration not stated) | 44.1 µg/mL (≈ 133 µM)
COCCNC(=O)c1ccccc1NC(=O)Nc1ccccc1 | > 47 µg/mL
CN(C)c1ccc(NC(=O)c2cnsn2)cc1 | 30.2 µg/mL (≈ 122 µM)
CCCOc1ccc(CC(=O)NCCc2ccccc2)cc1OC | 20.3 µg/mL (≈ 62 µM)
O=C(O)/C=C/c1ccc(-n2ccnc2)cc1 | > 32.1 µg/mL
CN(C)C(=S)Nc1ccc(Cl)cc1 | > 32.2 µg/mL
O=C(CN1C(=O)NC(c2ccc(F)cc2)C1=O)NC1CCCCC1 (configuration not stated) | > 50 µg/mL
COCCn1c(=S)[nH]c2sc3c(c2c1=O)CCCC3 | > 44.5 µg/mL
Cc1c(OCC(=O)N(C)C)ccc2c(-c3ccccc3)cc(=O)oc12 | 13.6 µg/mL (≈ 40.3 µM)
O=C(CNC(=O)c1ccccc1)OCN1C(=O)c2ccccc2C1=O | > 50.7 µg/mL
Cc1nc([N+](=O)[O-])cn1CC(=O)Nc1ccc([N+](=O)[O-])cc1 | 1.3 µg/mL (≈ 4.26 µM)
Cc1ccccc1-c1nc2ccc(Cl)cc2c(=O)n1O | > 43 µg/mL
COc1ccc(C)c2sc(N(CCN(C)C)C(=O)c3ccc4ccccc4c3)nc12.Cl | 30.8 µg/mL
CCOC(=O)c1ccc2ncc(-c3ccccc3)nc2c1 | 0.3 µg/mL (≈ 1.08 µM)
COC(=O)C1=C(Nc2ccccc2NC(=O)c2ccccc2C(=O)O)CSC1 | > 59.8 µg/mL
Cc1cnc(C(=O)OCC(=O)N2CC(C)CC(C)C2)cn1 (configuration not stated) | 43.3 µg/mL (≈ 149 µM)
COc1ccc(/C=C2\Oc3cc(OC(=O)N4CCOCC4)ccc3C2=O)cc1 | < 0.8 µg/mL

Compound | solubility kinetic
COc1ccc(/C=C/C(=O)OCC(=O)NC(C)CCc2ccccc2)cc1OC (configuration not stated) | 23.9 µg/mL (≈ 60.1 µM)
CCOC(=O)C1CCCCN1Cc1cccc(Oc2ccccc2)c1 (configuration not stated) | < 0.7 µg/mL
Cc1ccc(C(=O)NCC(=O)Nc2ccncc2)cc1 | > 40.4 µg/mL
COc1cc(C(=O)COC(=O)c2c(C)noc2C)cc(OC)c1OC | > 52.4 µg/mL
Cc1ccccc1S(=O)(=O)NCC1CCCO1 (configuration not stated) | 27.1 µg/mL (≈ 106 µM)
COc1ccc(C(=O)NC2CCN(C(=O)NCc3ccccc3)CC2)cc1 | 5.4 µg/mL (≈ 14.7 µM)
Cc1ccc(CNC(=O)c2ccc(OCC(C)C)cc2)n1C | 27.6 µg/mL (≈ 91.9 µM)
COc1ccccc1C(C)NCC(=O)Nc1c(F)cccc1F (configuration not stated) | > 48.1 µg/mL
O=C(CNC(=O)c1ccccc1)Oc1cccc(Cl)c1 | > 43.5 µg/mL
O=C(Nc1ccccc1)c1cccc(C(=O)Nc2ccccc2)n1 | 0.3 µg/mL (≈ 0.945 µM)
CC(CC(=O)O)C(=O)c1ccc(Cl)c([N+](=O)[O-])c1 (configuration not stated) | > 40.7 µg/mL
COc1ccccc1OCC(=O)NCCCN1CCOCC1 | 36.1 µg/mL (≈ 117 µM)
COc1ccc(OC)c2c1sc(=NC(=O)C1COc3ccccc3O1)n2C (configuration not stated) | < 0.4 µg/mL
Cc1ccc(N=CC2=C(O)CC(c3ccccc3Cl)CC2=O)cc1 (configuration not stated) | < 0.7 µg/mL
Cc1ccc(C(=O)N2c3ccccc3OCC2C)cc1 (configuration not stated) | 37 µg/mL (≈ 138 µM)
COc1cccc(CN(C)C(c2ccccc2)c2ccccc2)c1OC | 1.7 µg/mL (≈ 4.89 µM)
COc1ccc(Nc2nnc(C)c(=O)[nH]2)c(OC)c1 | > 39.3 µg/mL
COc1cccc(C(=O)Nc2ccc(NC(=O)C3CC3)nc2)c1 | 1.6 µg/mL (≈ 5.14 µM)
Cl.Clc1cccc2c3c([nH]c12)CCNC3 | 25.8 µg/mL
Cn1c(CO)cnc1S(=O)(=O)Cc1c(Cl)cccc1Cl | > 50.3 µg/mL
Cc1ccc(NC(=O)c2cc3ccccc3cc2O)cc1 | < 0.6 µg/mL
Cc1ccc(NC(=O)C(=O)NCCCN2CC(C(=O)O)CC2=O)cc1 (configuration not stated) | > 52.1 µg/mL
